Results: ChEMBL document CHEMBL1151328, “Novel cytotoxic acylated oligorhamnosides from Mezzettia leptopoda” (1998)
≈ marks a conversion by molar mass, not a printed value. Calls of active or inactive are those of the source. The calls are words filed in the database; no cut-off is given here.

What was measured:
[1] = test system: ASK; test: Antimitotic activity in rat ASK cells at 100 ug/mL; format: functional, cell-based
[2] = test system: KB; test: Cytotoxicity against human drug-resistant KB cells in presence of 1 ug/mL vinblastine; format: functional; settings: read-out: ED50 (the source's name)
[3] = Cytotoxicity against human BC1 cells; format: functional; settings: read-out: ED50 (the source's name)
[4] = test system: Lu1; test: Cytotoxicity against human Lu1 cells; format: functional; settings: read-out: ED50 (the source's name)
[5] = test system: KB; test: Cytotoxicity against human KB cells; format: functional; settings: read-out: ED50 (the source's name)
[6] = test system: Col2; test: Cytotoxicity against human Col2 cells; format: functional; settings: read-out: ED50 (the source's name)
[7] = test system: LNCaP; test: Cytotoxicity against human LNCAP cells; format: functional; settings: read-out: ED50 (the source's name)
[8] = test system: KB; test: Cytotoxicity against human drug-resistant KB cells in absence of vinblastine; format: functional; settings: read-out: ED50 (the source's name)

CCCCCCCCO[C@@H]1O[C@@H](C)[C@H](OC(=O)CCCCC)[C@@H](O[C@@H]2O[C@@H](C)[C@H](OC(C)=O)[C@@H](O[C@@H]3O[C@@H](C)[C@H](OC(C)=O)[C@@H](O)[C@H]3OC(C)=O)[C@H]2OC(C)=O)[C@H]1O [MEZZETTIASIDE 2]
Activity [1]: inactive | EC50 [2]: > 20 µg/mL | EC50 [3]: > 20 µg/mL | EC50 [4]: 8.6 µg/mL (≈ 10.3 µM) | EC50 [5]: 6.2 µg/mL (≈ 7.43 µM) | EC50 [6]: 4.3 µg/mL (≈ 5.15 µM) | EC50 [7]: > 20 µg/mL | EC50 [8]: > 20 µg/mL

CCCCCCCCO[C@@H]1O[C@@H](C)[C@H](OC(=O)CCCCC)[C@@H](O[C@@H]2O[C@@H](C)[C@H](OC(C)=O)[C@@H](O[C@@H]3O[C@@H](C)[C@H](OC(C)=O)[C@@H](OC(C)=O)[C@H]3O)[C@H]2OC(C)=O)[C@H]1O [MEZZETTIASIDE 3]
Activity [1]: inactive | EC50 [2]: > 20 µg/mL | EC50 [3]: > 20 µg/mL | EC50 [4]: 11.8 µg/mL (≈ 14.1 µM) | EC50 [5]: 14.3 µg/mL (≈ 17.1 µM) | EC50 [6]: 4.9 µg/mL (≈ 5.87 µM) | EC50 [7]: > 20 µg/mL | EC50 [8]: > 20 µg/mL

CCCCCCCCO[C@@H]1O[C@@H](C)[C@H](OC(=O)CCCCC)[C@@H](O[C@@H]2O[C@@H](C)[C@H](OC(C)=O)[C@@H](O[C@@H]3O[C@@H](C)[C@H](OC(C)=O)[C@@H](O)[C@H]3O)[C@H]2OC(C)=O)[C@H]1O [MEZZETTIASIDE 4]
Activity [1]: inactive | EC50 [2]: > 20 µg/mL | EC50 [3]: > 20 µg/mL | EC50 [4]: 19.4 µg/mL (≈ 24.5 µM) | EC50 [5]: 15.4 µg/mL (≈ 19.4 µM) | EC50 [6]: 6.2 µg/mL (≈ 7.82 µM) | EC50 [7]: > 20 µg/mL | EC50 [8]: > 20 µg/mL

CCCCCCCCO[C@@H]1O[C@@H](C)[C@H](OC(=O)CCCCC)[C@@H](O[C@@H]2O[C@@H](C)[C@H](OC(C)=O)[C@@H](O[C@@H]3O[C@@H](C)[C@H](O)[C@@H](O)[C@H]3OC(C)=O)[C@H]2OC(C)=O)[C@H]1O [MEZZETTIASIDE 8]
Activity [1]: inactive | EC50 [2]: > 20 µg/mL | EC50 [3]: > 20 µg/mL | EC50 [4]: 19.7 µg/mL (≈ 24.8 µM) | EC50 [5]: > 20 µg/mL | EC50 [6]: 8.2 µg/mL (≈ 10.3 µM) | EC50 [7]: > 20 µg/mL | EC50 [8]: > 20 µg/mL

CCCCCCCCO[C@@H]1O[C@@H](C)[C@H](OC(=O)CCCCC)[C@@H](O[C@@H]2O[C@@H](C)[C@H](O)[C@@H](OC(C)=O)[C@H]2OC(C)=O)[C@H]1O [MEZZETTIASIDE 9]
Activity [1]: inactive | EC50 [2]: > 20 µg/mL | EC50 [3]: > 20 µg/mL | EC50 [4]: 5.4 µg/mL (≈ 8.93 µM) | EC50 [5]: 11.3 µg/mL (≈ 18.7 µM) | EC50 [6]: > 20 µg/mL | EC50 [7]: > 20 µg/mL | EC50 [8]: > 20 µg/mL

CCCCCCCCO[C@@H]1O[C@@H](C)[C@H](OC(=O)CCCCC)[C@@H](O[C@@H]2O[C@@H](C)[C@H](OC(C)=O)[C@@H](OC(C)=O)[C@H]2OC(C)=O)[C@H]1O [MEZZETTIASIDE 11]
Activity [1]: inactive | EC50 [2]: 5.6 µg/mL | EC50 [3]: > 20 µg/mL | EC50 [4]: 6.1 µg/mL (≈ 9.43 µM) | EC50 [5]: 12.7 µg/mL (≈ 19.6 µM) | EC50 [6]: 9 µg/mL (≈ 13.9 µM) | EC50 [7]: > 20 µg/mL | EC50 [8]: > 20 µg/mL

CCCCCCCCO[C@@H]1O[C@@H](C)[C@H](OC(=O)CCCCC)[C@@H](O[C@@H]2O[C@@H](C)[C@H](OC(C)=O)[C@@H](O)[C@H]2OC(C)=O)[C@H]1O [MEZZETTIASIDEIDE 10]
Activity [1]: inactive | EC50 [2]: > 20 µg/mL | EC50 [3]: > 20 µg/mL | EC50 [4]: > 20 µg/mL | EC50 [5]: > 20 µg/mL | EC50 [6]: > 20 µg/mL | EC50 [7]: > 20 µg/mL | EC50 [8]: > 20 µg/mL
